Laboratory results reported in PMC9465710, “Identification of a BAZ2A-Bromodomain Hit Compound by Fragment Growing” (ACS Medicinal Chemistry Letters, 2022).

How the values were obtained:
BAZ2A bromodomain [1] = target: T1, BAZ2A bromodomain (Homo sapiens, UniProt Q9UIF9); experiment: AlphaScreen competition binding assay (BAZ2A bromodomain binding to acetylated peptide); details: for IC50: AlphaScreen dose-response; for remaining binding at 500 µM: single dose, compound concentration 500 μM, read-out: % residual BAZ2A activity; for decrease of binding of BAZ2A bromodomain to the acetylated peptide: tested at 500 μM, single dose in duplicate
T1 construct: made in house
T1 sequence (Q9UIF9 1793-1897 limits assumed): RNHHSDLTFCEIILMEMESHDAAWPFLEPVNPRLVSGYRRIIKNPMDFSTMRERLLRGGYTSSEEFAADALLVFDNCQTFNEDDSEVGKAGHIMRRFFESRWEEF
Procedure: The 36 selected molecules were tested by AlphaScreen at single doses in duplicate. Six molecules (compounds 8, 9, 11, 14, 18, and 25) decreased binding of BAZ2A bromodomain to the acetylated peptide by at least 50% when tested at 500 μM. […]
AlphaScreen assay was conducted as detailed in [11]. […]

BAZ2A bromodomain [2] = target: T1, BAZ2A bromodomain; experiment: as above; details: single dose 100 μM; IC50 not determined; read-out: Residual activity when tested in single dose

Structure (SMILES)	IC50 (BAZ2A bromodomain [1])	further results
NC1CCCN(S(=O)(=O)c2cccc3cnccc23)C1 (stereo not shown) [Compound 8]	> 200 µM	remaining binding at 500 µM (BAZ2A bromodomain [1]): 49 ± 7%; decrease of binding of BAZ2A bromodomain to the acetylated peptide (BAZ2A bromodomain [1]): at least 50%
O=S(=O)(NC1CCNC1)c1cccc2cnccc12 (stereo not shown) [Compound 9]	> 200 µM	remaining binding at 500 µM (BAZ2A bromodomain [1]): 44 ± 3%; decrease of binding of BAZ2A bromodomain to the acetylated peptide (BAZ2A bromodomain [1]): at least 50%
C/N=C(/NC)NC1CCN(c2cc(OC)cc(OC)c2)CC1 [Compound 11]	> 200 µM	remaining binding at 500 µM (BAZ2A bromodomain [1]): 48 ± 5%; decrease of binding of BAZ2A bromodomain to the acetylated peptide (BAZ2A bromodomain [1]): at least 50%
NC(=O)c1cc(OC2CCNCC2)ccn1 [Compound 13]		remaining binding at 500 µM (BAZ2A bromodomain [1]): 75 ± 2%
NCc1ccc(N2CCNC(=O)C2)cc1 [Compound 14]	> 200 µM	remaining binding at 500 µM (BAZ2A bromodomain [1]): 32 ± 4%; decrease of binding of BAZ2A bromodomain to the acetylated peptide (BAZ2A bromodomain [1]): at least 50%
CC(=O)N1CCN(c2ccc(NC(=N)N)cc2)CC1 [Compound 18]	> 200 µM	remaining binding at 500 µM (BAZ2A bromodomain [1]): 37 ± 4%; decrease of binding of BAZ2A bromodomain to the acetylated peptide (BAZ2A bromodomain [1]): at least 50%
CCc1c(-c2csc(N=C(N)N)n2)[nH]c(C)c1C(C)=O [Compound 25]	33.2 ± 0.3 µM	ligand efficiency (LE) (BAZ2A bromodomain [1]): 0.31 kcal/mol per heavy atom; lipophilic ligand efficiency (LLE) (BAZ2A bromodomain [1]): 2.4; remaining binding at 500 µM (BAZ2A bromodomain [1]): 5 ± 0.6%; decrease of binding of BAZ2A bromodomain to the acetylated peptide (BAZ2A bromodomain [1]): at least 50%
NC1CCN(C(=O)c2ccc(=O)[nH]c2)CC1 [Compound 36]		remaining binding at 500 µM (BAZ2A bromodomain [1]): 71 ± 3%
CCc1c(-c2csc(N)n2)[nH]c(C)c1C(C)=O [Compound 43]	76.2 ± 8.6 µM	
CCc1c(-c2csc(CCCN)n2)[nH]c(C)c1C(C)=O [Compound 44]	57.9 ± 6 µM	
CCc1c(-c2csc(CCNC)n2)[nH]c(C)c1C(C)=O [Compound 45]	109 ± 12.3 µM	
CCc1c(-c2csc(N3CCNCC3)n2)[nH]c(C)c1C(C)=O [Compound 47]	33.3 ± 0.4 µM	ligand efficiency (LE) (BAZ2A bromodomain [1]): 0.29 kcal/mol per heavy atom; lipophilic ligand efficiency (LLE) (BAZ2A bromodomain [1]): 1.9
CCc1c(-c2csc(C3CCNCC3)n2)[nH]c(C)c1C(C)=O [Compound 48]	94.6 ± 11.7 µM	
CCc1c(-c2csc(C3CCCNC3)n2)[nH]c(C)c1C(C)=O (stereo not shown) [Compound 49]	47 ± 5 µM	
CCc1c(-c2csc(C3CCCCN3)n2)[nH]c(C)c1C(C)=O (stereo not shown) [Compound 50]	76.8 ± 6.4 µM	
CCc1c(-c2csc(C3COCCN3)n2)[nH]c(C)c1C(C)=O (stereo not shown) [Compound 52]	93.5 ± 9.7 µM	
CCc1c(-c2csc(C3CCNC3)n2)[nH]c(C)c1C(C)=O (stereo not shown) [Compound 53]	54 ± 0.2 µM	
CCc1c(-c2csc(C3(NC(C)=O)CCNC3)n2)[nH]c(C)c1C(C)=O (stereo not shown) [Compound 54]	61.3 ± 10.6 µM	
CCc1c(-c2csc(C3CCN(C(C)=O)C3)n2)[nH]c(C)c1C(C)=O (stereo not shown) [Compound 55]	114 ± 22.1 µM	
CCc1c(-c2csc(C3CCN(C(N)=O)C3)n2)[nH]c(C)c1C(C)=O (stereo not shown) [Compound 56]	> 100 µM	
CCc1c(-c2csc(C3CCCN3C(C)=O)n2)[nH]c(C)c1C(C)=O (stereo not shown) [Compound 57]	93.2 ± 10.1 µM	
CCc1c(-c2csc(C3CCCN3C(N)=O)n2)[nH]c(C)c1C(C)=O (stereo not shown) [Compound 58]	> 100 µM	

Structure (SMILES)	IC50 (BAZ2A bromodomain [1])	further results
CCc1c(-c2csc(CN3CCOCC3)n2)[nH]c(C)c1C(C)=O [Compound 59]	74.2 ± 9.1 µM	
CCc1c(-c2csc(Cc3ccc(N)cc3)n2)[nH]c(C)c1C(C)=O [Compound 60]	> 100 µM	
CCc1c(-c2csc(CN3CCNCC3)n2)[nH]c(C)c1C(C)=O [Compound 61]	54 ± 0.2 µM	
CCc1c(-c2csc(NC3CCNCC3)n2)[nH]c(C)c1C(C)=O [Compound 62]	53.9 ± 0.2 µM	
CCc1c(-c2csc(CN3CCC(N)CC3)n2)[nH]c(C)c1C(C)=O [Compound 63]	60.5 ± 9.4 µM	
CCc1c(-c2csc(CN3CCN(C(C)=O)CC3)n2)[nH]c(C)c1C(C)=O [Compound 64]	75.7 ± 9.2 µM	
CC(=O)c1c(C)[nH]c(-c2csc(CN3C(=O)CNC3=O)n2)c1C [Compound 65]	54 ± 0.3 µM	
CCc1c(-c2csc(C3(N)CCCC3)n2)[nH]c(C)c1C(C)=O [Compound 66]	99.7 ± 10.9 µM	
Cc1[nH]c(-c2csc(-c3cc[nH]n3)n2)c2c1C(=O)CCC2 [Compound 69]	74.3 ± 4.7 µM	
CCc1c(-c2csc(-c3cnc[nH]3)n2)[nH]c(C)c1C(C)=O [Compound 72]	54.6 ± 7.1 µM	
CCc1c(-c2csc(N3CCNCC3)n2)[nH]c(C)c1C(N)=O [Compound 74]	> 100 µM	
CCCNC(=O)c1c(C)[nH]c(-c2csc(N3CCNCC3)n2)c1CC [Compound 75]		remaining binding at 100 µM (BAZ2A bromodomain [2]): > 50%
CC(=O)c1c(C)[nH]c(-c2csc(N3CCNCC3)n2)c1-c1ccnn1C [Compound 76]		remaining binding at 100 µM (BAZ2A bromodomain [2]): > 50%
CC(=O)c1c(C)[nH]c(-c2csc(N3CCNCC3)n2)c1CCC(F)(F)F [Compound 77]	38.9 ± 2 µM	
CC(=O)c1c(C)[nH]c(-c2csc(N3CCNCC3)n2)c1C1CCCC1 [Compound 78]	40.1 ± 3.4 µM	
CC(=O)c1c(C)[nH]c(-c2csc(N3CCNCC3)n2)c1CCC(C)C [Compound 79]	12.5 ± 0.4 µM	
Cc1[nH]c(-c2csc(N3CCNCC3)n2)c2c1C(=O)CCC2 [Compound 80]	11.4 ± 0.3 µM	
Cc1[nH]c(-c2csc(N3CCNCC3)n2)c2c1C(=O)CC(C)(C)C2 [Compound 81]	11.8 ± 0.3 µM	
Cc1[nH]c(-c2csc(N3CCNCC3)n2)c2c1C(=O)CCC2(C)C [Compound 82]	44.6 ± 5.6 µM	
Cc1[nH]c(-c2csc(NC(=N)N)n2)c2c1C(=O)CCC2 [Compound 83]	11 ± 0.2 µM	
Cc1[nH]c(-c2csc(NC(=N)N)n2)c2c1C(=O)CC(C)(C)C2 [Compound 84]	29.2 ± 0.3 µM	
CCc1c(-c2csc(N3CCN(Cc4cc5n(n4)CCC5)CC3)n2)[nH]c(C)c1C(C)=O [Compound 86]	> 100 µM	

Structure (SMILES)	IC50 (BAZ2A bromodomain [1])	further results
CCc1c(-c2csc(N3CCN(CC4CCN(CC)CC4)CC3)n2)[nH]c(C)c1C(C)=O [Compound 87]	46.6 ± 2.5 µM	
CCc1c(-c2csc(N3CCN(Cc4cn(CC(N)=O)nn4)CC3)n2)[nH]c(C)c1C(C)=O [Compound 88]	42.9 ± 4.6 µM	
CCc1c(-c2csc(N3CCN(Cc4cnn5c4OCCC5)CC3)n2)[nH]c(C)c1C(C)=O [Compound 89]		remaining binding at 100 µM (BAZ2A bromodomain [2]): > 50%
CCc1c(-c2csc(N3CCN(Cc4ccsc4S(N)(=O)=O)CC3)n2)[nH]c(C)c1C(C)=O [Compound 90]		remaining binding at 100 µM (BAZ2A bromodomain [2]): > 50%
CCc1c(-c2csc(N3CCN(Cc4cc(S(N)(=O)=O)co4)CC3)n2)[nH]c(C)c1C(C)=O [Compound 91]		remaining binding at 100 µM (BAZ2A bromodomain [2]): > 50%
CCc1c(-c2csc(N3CCN(Cc4n[nH]cc4C)CC3)n2)[nH]c(C)c1C(C)=O [Compound 92]	13.1 ± 0.9 µM	
CCc1c(-c2csc(N3CCN(Cc4c[nH]c(=O)[nH]c4=O)CC3)n2)[nH]c(C)c1C(C)=O [Compound 93]		remaining binding at 100 µM (BAZ2A bromodomain [2]): > 50%
CCc1c(-c2csc(N3CCN(Cc4c[nH]c5ncncc45)CC3)n2)[nH]c(C)c1C(C)=O [Compound 95]	12.9 ± 2 µM	
CCc1c(-c2csc(N3CCN(Cc4conc4COC)CC3)n2)[nH]c(C)c1C(C)=O [Compound 96]	85.1 ± 6.8 µM	
CCc1c(-c2csc(N3CCN(Cc4ccnn4CC(C)C)CC3)n2)[nH]c(C)c1C(C)=O [Compound 97]	49.3 ± 5.7 µM	
Cc1c[nH]nc1CN1CCN(c2nc(-c3[nH]c(C)c4c3CCCC4=O)cs2)CC1 [Compound 98]	12.6 ± 1.4 µM	
Cc1[nH]c(-c2csc(N3CCN(Cc4c[nH]c5ncncc45)CC3)n2)c2c1C(=O)CCC2 [Compound 99]	10.9 ± 0.2 µM	
CCc1c(-c2csc(N3CCNCC3C(=O)NC3(c4ncccc4F)CC3)n2)[nH]c(C)c1C(C)=O (stereo not shown) [Compound 100]	36.5 ± 4.1 µM	
CCc1c(-c2csc(N3CCNCC3C(=O)NC3(Cc4ccccc4Br)CC3)n2)[nH]c(C)c1C(C)=O (stereo not shown) [Compound 102]	10.6 ± 0.2 µM	
CCc1c(-c2csc(N3CCNCC3C(=O)NCCc3cc4ccccc4[nH]3)n2)[nH]c(C)c1C(C)=O (stereo not shown) [Compound 105]	33.2 ± 0.3 µM	
CCc1c(-c2csc(N3CCNCC3C(=O)NCC(F)(F)F)n2)[nH]c(C)c1C(C)=O (stereo not shown) [Compound 107]	14.1 ± 0.2 µM	
CCc1c(-c2csc(N3CCNCC3C(=O)NCC(C)(C)CC)n2)[nH]c(C)c1C(C)=O (stereo not shown) [Compound 108]	35.1 ± 0.2 µM	
CCc1c(-c2csc(N3CCNCC3C(=O)NCCCCO)n2)[nH]c(C)c1C(C)=O (stereo not shown) [Compound 109]	31.3 ± 0.7 µM	
CCc1c(-c2csc(N3CCNCC3C(=O)NCC(N)=O)n2)[nH]c(C)c1C(C)=O (stereo not shown) [Compound 110]	22 ± 2.3 µM	
CCc1c(-c2csc(N3CCNCC3C(=O)NCCC(F)(F)F)n2)[nH]c(C)c1C(C)=O (stereo not shown) [Compound 111]	11 ± 0.2 µM	
CCc1c(-c2csc(N3CCNCC3C(=O)NC(CO)CO)n2)[nH]c(C)c1C(C)=O (stereo not shown) [Compound 112]	42 ± 5.2 µM	
CCc1c(-c2csc(N3CCNCC3C(=O)NCC(C)(C)C)n2)[nH]c(C)c1C(C)=O (stereo not shown) [Compound 113]	14 ± 0.3 µM	
